The target of one experiment is T1, human glucagon-R (Homo sapiens, UniProt P47871).
T1 construct: expressed in transfected cells
Nature of the experiment: Glucagon receptor efficacy assay (cAMP formation, FlashPlate cAMP kit). The experiment is classed as cell-based. Here is the method: (§1) The 5′-end primers additionally encoded a near Kozak consensus sequence to ensure efficient translation.
(§2) 48 hr after transfection, cells were seeded for limited dilution cloning and selected with 1 mg/ml G418 in the culture medium.
In general terms: Changes in cAMP serve as a functional read-out for many G protein-coupled receptors.

Another experiment addresses T2, human GLP-1R (Homo sapiens, UniProt P43220).
T2 construct: expressed in transfected cells
Nature of the experiment: GLP-1 receptor efficacy assay (cAMP formation, FlashPlate cAMP kit). The following applies: HEK293 cells expressing human GLP-1R; cAMP formed, 15 min at 37° C. In kind it is cell-based. Here is the method: as §1, §2

Where [1] appears, read: HEK293 cells expressing human glucagon-R; cAMP formed, 15 min at 37° C.; read-out: EC50 nM) GluR.

The structures appear in SMILES notation. Read-outs that look alike come from different tables or passages of the source. Starred links: 1 amine or outer side, 2 acyl side, 3 side chain; linkers in the order of their positions; H or OH if unused. Non-standard residues stand in square brackets, D forms with d. Residues, ends and D or L forms follow the SMILES beside them. Groups on a side chain read outwards from the residue. *: point of attachment. γGlu = O=C(O)[C@H](CCC(=O)[*:2])N[*:1]; Palmitoyl = CCCCCCCCCCCCCCCC(=O)*; Aib = CC(C)(N)C(=O)O

T2 sequence (P43220 24-463): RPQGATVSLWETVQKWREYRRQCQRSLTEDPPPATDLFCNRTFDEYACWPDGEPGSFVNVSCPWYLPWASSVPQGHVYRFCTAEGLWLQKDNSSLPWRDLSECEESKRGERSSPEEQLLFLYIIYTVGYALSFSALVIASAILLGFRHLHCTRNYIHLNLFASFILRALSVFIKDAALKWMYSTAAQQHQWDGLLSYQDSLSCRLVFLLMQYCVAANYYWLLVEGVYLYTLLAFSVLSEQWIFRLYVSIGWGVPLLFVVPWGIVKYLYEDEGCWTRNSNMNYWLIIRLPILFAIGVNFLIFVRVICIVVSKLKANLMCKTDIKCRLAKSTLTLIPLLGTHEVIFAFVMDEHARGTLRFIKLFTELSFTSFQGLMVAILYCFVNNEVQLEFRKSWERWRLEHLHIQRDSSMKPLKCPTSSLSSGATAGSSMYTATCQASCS
T1 sequence (P47871 26-477): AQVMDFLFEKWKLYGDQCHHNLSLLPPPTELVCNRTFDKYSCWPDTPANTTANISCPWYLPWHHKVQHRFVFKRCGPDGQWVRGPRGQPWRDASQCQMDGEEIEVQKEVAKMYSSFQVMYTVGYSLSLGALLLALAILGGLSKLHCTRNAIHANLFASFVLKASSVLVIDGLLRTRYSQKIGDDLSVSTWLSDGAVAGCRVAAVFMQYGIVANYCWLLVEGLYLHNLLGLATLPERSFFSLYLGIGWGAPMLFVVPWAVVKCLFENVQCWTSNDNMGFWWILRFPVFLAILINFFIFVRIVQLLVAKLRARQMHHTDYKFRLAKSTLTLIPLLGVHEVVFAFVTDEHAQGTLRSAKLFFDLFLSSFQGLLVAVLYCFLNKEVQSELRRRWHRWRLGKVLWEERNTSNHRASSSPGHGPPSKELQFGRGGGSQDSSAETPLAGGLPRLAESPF

Usually EC50 stands for the concentration that produces a half-maximal response. Take `CCCCCCCCCCCCCCCC(=O)N[C@@H](CCC(=O)NCCCC[C@H](NC(=O)[C@H](CO)NC(=O)[C@H](CC(=O)O)NC(=O)[C@H](CC(C)C)NC(=O)[C@H](Cc1ccc(O)cc1)NC(=O)[C@H](CCCCN)NC(=O)[C@H](CO)NC(=O)[C@H](Cc1ccc(O)cc1)NC(=O)[C@H](CC(=O)O)NC(=O)[C@H](CO)NC(=O)[C@@H](NC(=O)[C@H](Cc1ccccc1)NC(=O)[C@@H](NC(=O)CNC(=O)[C@H](Cc1c[nH]cn1)NC(=O)C(C)(C)NC(=O)[C@@H](N)Cc1c[nH]cn1)[C@@H](C)O)[C@@H](C)O)C(=O)N[C@@H](C)C(=O)N[C@@H](C)C(=O)N[C@@H](Cc1c[nH]cn1)C(=O)N[C@@H](CCC(=O)O)C(=O)N[C@@H](Cc1ccccc1)C(=O)N[C@H](C(=O)N[C@@H](CCC(=O)O)C(=O)N[C@@H](Cc1c[nH]c2ccccc12)C(=O)N[C@@H](CC(C)C)C(=O)N[C@@H](CC(C)C)C(=O)N[C@@H](CCC(=O)O)C(=O)N[C@@H](C)C(N)=O)C(C)C)C(=O)O` [Compound 5] (H-H[Aib]HGTFTSDYSKYLDSK([γGlu-Palmitoyl])AAHEFVEWLLEA-NH2): the EC50 was determined as 0.15 nM on human glucagon-R (setting [1]) and 0.16 nM on human GLP-1R.

With `CCCCCCCCCCCCCCCC(=O)N[C@@H](CCC(=O)NCCCC[C@H](NC(=O)[C@H](CO)NC(=O)[C@H](CC(=O)O)NC(=O)[C@H](CC(C)C)NC(=O)[C@H](Cc1ccc(O)cc1)NC(=O)[C@H](CCCCN)NC(=O)[C@H](CO)NC(=O)[C@H](Cc1ccc(O)cc1)NC(=O)[C@H](CC(=O)O)NC(=O)[C@H](CO)NC(=O)[C@@H](NC(=O)[C@H](Cc1ccccc1)NC(=O)[C@@H](NC(=O)CNC(=O)[C@H](CCC(=O)O)NC(=O)C(C)(C)NC(=O)[C@@H](N)Cc1c[nH]cn1)[C@@H](C)O)[C@@H](C)O)C(=O)N[C@@H](C)C(=O)N[C@@H](C)C(=O)N[C@@H](Cc1c[nH]cn1)C(=O)N[C@@H](CC(=O)O)C(=O)N[C@@H](Cc1ccccc1)C(=O)N[C@H](C(=O)N[C@@H](CCC(=O)O)C(=O)N[C@@H](Cc1c[nH]c2ccccc12)C(=O)N[C@@H](CC(C)C)C(=O)N[C@@H](CC(C)C)C(=O)N[C@@H](CO)C(=O)N[C@@H](C)C(N)=O)C(C)C)C(=O)O` [Compound 7] (H-H[Aib]EGTFTSDYSKYLDSK([γGlu-Palmitoyl])AAHDFVEWLLSA-NH2), at human glucagon-R (setting [1]), the EC50 is 26 nM. For the molecule `CCCCCCCCCCCCCCCC(=O)N[C@@H](CCC(=O)NCCCC[C@H](NC(=O)[C@H](CO)NC(=O)[C@H](CC(=O)O)NC(=O)[C@H](CC(C)C)NC(=O)[C@H](Cc1ccc(O)cc1)NC(=O)[C@H](CCCCN)NC(=O)[C@H](CO)NC(=O)[C@H](Cc1ccc(O)cc1)NC(=O)[C@H](CC(=O)O)NC(=O)[C@H](CO)NC(=O)[C@@H](NC(=O)[C@H](Cc1ccccc1)NC(=O)[C@@H](NC(=O)[C@H](C)NC(=O)[C@H](CCC(N)=O)NC(=O)C(C)(C)NC(=O)[C@@H](N)Cc1c[nH]cn1)[C@@H](C)O)[C@@H](C)O)C(=O)N[C@@H](C)C(=O)N[C@@H](C)C(=O)N[C@@H](Cc1c[nH]cn1)C(=O)N[C@@H](CC(=O)O)C(=O)N[C@@H](Cc1ccccc1)C(=O)N[C@H](C(=O)N[C@@H](CCC(=O)O)C(=O)N[C@@H](Cc1c[nH]c2ccccc12)C(=O)N[C@@H](CC(C)C)C(=O)N[C@@H](CC(C)C)C(=O)N[C@@H](CO)C(=O)N[C@@H](C)C(N)=O)C(C)C)C(=O)O` [Compound 8] (H-H[Aib]QATFTSDYSKYLDSK([γGlu-Palmitoyl])AAHDFVEWLLSA-NH2), at human glucagon-R (setting [1]), the EC50 is 3 nM. With `CCCCCCCCCCCCCCCC(=O)N[C@@H](CCC(=O)NCCCC[C@H](NC(=O)[C@H](CO)NC(=O)[C@H](CC(=O)O)NC(=O)[C@H](CC(C)C)NC(=O)[C@H](Cc1ccc(O)cc1)NC(=O)[C@H](CCCCN)NC(=O)[C@H](CO)NC(=O)[C@H](Cc1ccc(O)cc1)NC(=O)[C@H](CC(=O)O)NC(=O)[C@H](CO)NC(=O)[C@@H](NC(=O)[C@H](Cc1ccccc1)NC(=O)[C@@H](NC(=O)CNC(=O)[C@@H](NC(=O)C(C)(C)NC(=O)[C@@H](N)Cc1c[nH]cn1)C(C)C)[C@@H](C)O)[C@@H](C)O)C(=O)N[C@@H](C)C(=O)N[C@@H](C)C(=O)N[C@@H](Cc1c[nH]cn1)C(=O)N[C@@H](CC(=O)O)C(=O)N[C@@H](Cc1ccccc1)C(=O)N[C@H](C(=O)N[C@@H](CCC(=O)O)C(=O)N[C@@H](Cc1c[nH]c2ccccc12)C(=O)N[C@@H](CC(C)C)C(=O)N[C@@H](CC(C)C)C(=O)N[C@@H](CO)C(=O)N[C@@H](C)C(N)=O)C(C)C)C(=O)O` [Compound 16] (H-H[Aib]VGTFTSDYSKYLDSK([γGlu-Palmitoyl])AAHDFVEWLLSA-NH2), the EC50 at human glucagon-R (setting [1]) amounted to 3 nM. Regarding `CCCCCCCCCCCCCCCC(=O)N[C@@H](CCC(=O)NCCCC[C@H](NC(=O)[C@H](CO)NC(=O)[C@H](CC(=O)O)NC(=O)[C@H](CC(C)C)NC(=O)[C@H](Cc1ccc(O)cc1)NC(=O)[C@H](CCCCN)NC(=O)[C@H](CO)NC(=O)[C@H](Cc1ccc(O)cc1)NC(=O)[C@H](CC(=O)O)NC(=O)[C@H](CO)NC(=O)[C@@H](NC(=O)[C@H](Cc1ccccc1)NC(=O)[C@@H](NC(=O)CNC(=O)[C@@H](NC(=O)C(C)(C)NC(=O)[C@@H](N)Cc1c[nH]cn1)[C@@H](C)CC)[C@@H](C)O)[C@@H](C)O)C(=O)N[C@@H](C)C(=O)N[C@@H](C)C(=O)N[C@@H](Cc1c[nH]cn1)C(=O)N[C@@H](CC(=O)O)C(=O)N[C@@H](Cc1ccccc1)C(=O)N[C@H](C(=O)N[C@@H](CCC(=O)O)C(=O)N[C@@H](Cc1c[nH]c2ccccc12)C(=O)N[C@@H](CC(C)C)C(=O)N[C@@H](CC(C)C)C(=O)N[C@@H](CO)C(=O)N[C@@H](C)C(N)=O)C(C)C)C(=O)O` [Compound 19] (H-H[Aib]IGTFTSDYSKYLDSK([γGlu-Palmitoyl])AAHDFVEWLLSA-NH2), the EC50 on human glucagon-R (earlier determination, replaced by redetermination in Table 1, read-out: EC50 GluR, earlier determined value) was 3 nM; at human GLP-1R it was 0.16 nM. With `CCCCCCCCCCCCCCCC(=O)N[C@@H](CCC(=O)NCCCC[C@H](NC(=O)[C@H](CO)NC(=O)[C@H](CC(=O)O)NC(=O)[C@H](CC(C)C)NC(=O)[C@H](Cc1ccc(O)cc1)NC(=O)[C@H](CCCCN)NC(=O)[C@H](CO)NC(=O)[C@H](Cc1ccc(O)cc1)NC(=O)[C@H](CC(=O)O)NC(=O)[C@H](CO)NC(=O)[C@@H](NC(=O)[C@H](Cc1ccccc1)NC(=O)[C@@H](NC(=O)CNC(=O)CNC(=O)C(C)(C)NC(=O)[C@@H](N)Cc1c[nH]cn1)[C@@H](C)O)[C@@H](C)O)C(=O)N[C@@H](C)C(=O)N[C@@H](C)C(=O)N[C@@H](Cc1c[nH]cn1)C(=O)N[C@@H](CC(=O)O)C(=O)N[C@@H](Cc1ccccc1)C(=O)N[C@H](C(=O)N[C@@H](CCC(=O)O)C(=O)N[C@@H](Cc1c[nH]c2ccccc12)C(=O)N[C@@H](CC(C)C)C(=O)N[C@@H](CC(C)C)C(=O)N[C@@H](CO)C(=O)N[C@@H](C)C(N)=O)C(C)C)C(=O)O` [Compound 20] (H-H[Aib]GGTFTSDYSKYLDSK([γGlu-Palmitoyl])AAHDFVEWLLSA-NH2), the concentration giving a half-maximal response (EC50) was 26 nM on human glucagon-R (setting [1]) and 0.21 nM at human GLP-1R. For `CCCCCCCCCCCCCCCC(=O)N[C@@H](CCC(=O)NCCCC[C@H](NC(=O)[C@H](CO)NC(=O)[C@H](CCC(=O)O)NC(=O)[C@H](CC(C)C)NC(=O)[C@H](Cc1ccc(O)cc1)NC(=O)[C@H](CCCCN)NC(=O)[C@H](CO)NC(=O)[C@H](Cc1ccc(O)cc1)NC(=O)[C@H](CC(=O)O)NC(=O)[C@H](CO)NC(=O)[C@@H](NC(=O)[C@H](Cc1ccccc1)NC(=O)[C@@H](NC(=O)CNC(=O)[C@H](Cc1c[nH]cn1)NC(=O)C(C)(C)NC(=O)[C@@H](N)Cc1c[nH]cn1)[C@@H](C)O)[C@@H](C)O)C(=O)N[C@@H](C)C(=O)N[C@@H](C)C(=O)N[C@@H](CCC(=O)O)C(=O)N[C@@H](CCC(=O)O)C(=O)N[C@@H](Cc1ccccc1)C(=O)N[C@H](C(=O)N[C@@H](CCC(=O)O)C(=O)N[C@@H](Cc1c[nH]c2ccccc12)C(=O)N[C@@H](CC(C)C)C(=O)N[C@@H](CC(C)C)C(=O)N[C@@H](CCC(=O)O)C(=O)N[C@@H](C)C(N)=O)C(C)C)C(=O)O` [Compound 31] (H-H[Aib]HGTFTSDYSKYLESK([γGlu-Palmitoyl])AAEEFVEWLLEA-NH2) the same measures were 0.15 nM and 0.09 nM.

The values above are taken from patent publication US9169310B2 (Zealand Pharma A/S, priority 2010, dated 2015).
